Results taken from US7714014B2, “Targeting GLI proteins in human cancer by small molecules” (The Regents of the University of California, priority 2005, dated 2010).

Legend:
[1] = Pharmacokinetic analysis in mice (i.p. injection); type: in vivo, mouse
Experimental: Three mice were i.p. injected in the abdomens with small molecule compounds FN1-5 at a dose of 30 mg/kg body weight. Then plasma was collected from the tail-vein of each mouse at 10 min, 2 hours, 6 hours and 24 hours after FN1-5 injection.
Similarly, the pharmacokinetic properties of small molecule compound FN1-8 were analyzed (FIG. 21B). Comparing the uptake of FN1-8 to FN1-5, the uptake of FN1-5 after i.p injection seems to be better, by about 2 fold.

[2] = system: cytosolic β-catenin in human normal skin fibroblasts (Malme-3); experiment: Western blot of cytosolic β-catenin; type: cell-based; conditions: 10 μM or 20 μM
Experimental: […] Protein concentrations were measured using Bio-Rad Protein Assay reagent. Whole cell lysate protein (5-20 ug) were boiled for 5 min and separated by 10-20% SDS-PAGE. Proteins were transferred to an Immobilon-P membrane (Millipore Corp., Bedford, Mass.) using semi-dry transfer cell (Bio-Rad; Benicia, Calif.). The membranes were blocked with 5% nonfat milk powder and 0.1% Tween 20 in Tris-buffer saline overnight at 4° C. and then incubated with primary antibody for 1 h at room temperature. Membranes were washed in 5% nonfat milk powder and 0.1% Tween 20 in Tris-buffer saline for three 10-min periods. Horseradish peroxidase-conjugated goat anti-rabbit or donkey anti-mouse antibodies were used as secondary antibodies. Proteins were visualized with chemiluminescence luminol reagents (Santa Cruz Bio-technology). Anti-Dvl-3, and anti-Survivin, antibodies were from Santa Cruz Biotechnology (Santa Cruz, Calif.). Anti-Caspase3 antibody was from Oncogene (Cambridge, Mass.). Anti-β-Actin antibody was from Sigrna-Aldrich Corp. (St. Louis, Mo.). Anti-β-catenin antibody was from Transduction Laboratories (Lexington, Ky.). Anti-Cytochrome c antibody was from BD Biosciences (San Diego, Calif.). For detecting alteration of β-catenin cytosolic extracts were prepared and examined as described previously in the publications from our lab. […]

[3] = system: Hedgehog signaling pathway in NSCLC tumor (H460); experiment: Semi-quantitative RT-PCR of Hh pathway genes in xenograft tumors; type: in vivo, mouse
Experimental: (§1) To examine whether the lead compound FN1-8 suppressed tumor growth through inhibition of the Hedgehog signaling pathway in vivo, expression of the key components and direct target genes of the Hh pathway (e.g., Shh, Ptch1, Gli1, Gli2, Gli3, Dvl-3) were analyzed by semi-quantitative RT-PCR using total RNA isolated from the xenograft tumors. GAPDH served as a control. This RT-PCR analysis was performed using a “pooled” tumor from two randomly selected mice of each group with reasonable size tumors.

[4] = system: Hedgehog signaling pathway in HT29 tumor; experiment: as above; type: in vivo, mouse; conditions: HT29 xenograft tumor (negative control)
Experimental: as §1

[5] = system: NSCLC cells A549, H358, and H322; experiment: Time course of cell survival (flow cytometry); type: cell-based, human
Experimental: The time course of cell survival in NSCLC cells A549, H358, and H322 after administration of small molecule compound FN1-8 was analyzed. A549 cells were incubated with 10 μM and 20 μM FN1-8, and H358 and H322 cells were incubated with 15 μM and 30 μM FN1-8, respectively. Then flow cytometry was used to examine the percentage of living and dead cells at different time points. […] In H358 cells, the cell killing effect of FN1-8 is already apparent by 1 day, and in H322 cells by 2 days. (data not shown).

[6] = target: T1, GLI3-TAFbd peptide / TAFII31 protein (Homo sapiens, UniProt Q16594); experiment: Co-immunoprecipitation of GLI-TAFbd peptide and TAFII31; type: binding
T1 construct: The full-length TAFII31 cDNA insert cloned into the (c-myc-tag)pCDNA3.1 expression vector was used as template; made in house; host or cells: cell-free: TNT quick coupled transcription/translation system (Promega)
T1 sequence (Q16594 whole entry): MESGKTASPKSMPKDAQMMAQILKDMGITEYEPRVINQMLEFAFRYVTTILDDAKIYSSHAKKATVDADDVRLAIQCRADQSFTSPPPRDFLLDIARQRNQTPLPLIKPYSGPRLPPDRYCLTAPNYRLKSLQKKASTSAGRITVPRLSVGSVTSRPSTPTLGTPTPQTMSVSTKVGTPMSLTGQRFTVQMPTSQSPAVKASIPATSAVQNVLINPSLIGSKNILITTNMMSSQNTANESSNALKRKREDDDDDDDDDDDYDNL
Experimental: (§2) The binding between GLI-TAF binding domain peptides (GLI-TAFbd) and TAFII31 protein was quantified by measuring the intensity of each band of an co-immunoprecipitation experiments with arbitrary unit. The binding after DMSO treatment was set to 100% for each GLI-TAFbd peptide. The binding was interfered by FN1-8 in dose-dependent manner: the binding for GLI1-TAFbd was 73.6% and 33.5%, for GLI2-TAFbd was 73.8% and 60%, for GLI3-TAFbd was 71.6% and 28.6%, after treatment with 20 μM and 50 μM FN1-8, respectively. Details are described in Example 35.
(§3) Specifically for this experiment, biotinylated TAF binding domain of GLI proteins, GLI1, GLI2, and GLI3 (see below) were custom synthesized at Genemed Synthesis, Inc. The GLI-TAF binding domain (GLI-TAFbd) peptide sequences were as follows;
(§4) TAFII31 proteins were prepared by using the TNT quick coupled transcription/translation systems (Promega) according to the manufacturer's protocol. The full-length TAFII31 cDNA insert cloned into the (c-myc-tag)pCDNA3.1 expression vector was used as template in this in vitro translation system. An empty (c-myc-tag)pCDNA3.1 expression vector was used as a control. The biotinylated GLI peptides (i.e., the TAF binding domains of three different GLI proteins) were incubated with the TAFII31 protein in the presence or absence of small molecule compound FN1-8 (at 20 μM and 50 μM). Then the biotinylated GLI-peptide-TAFII31 complexes were precipitated with streptavidine agarose followed by immunoblotting with an anti-c-myc antibody (A-14; Santa Cruz Biotech, Inc.; Cao et al., 2001, Science 293:115-120). […] As a control, there was no pull-down of TAFII31 by all three GLI peptides when the empty (c-myc-tag)pCDNA3.1 expression vector was used in in vitro translation system (FIG. 23).

[7] = target: T2, GLI2-TAFbd peptide / TAFII31 protein (Homo sapiens, UniProt Q16594); experiment: as above; type: binding
T2 construct: The full-length TAFII31 cDNA insert cloned into the (c-myc-tag)pCDNA3.1 expression vector was used as template; made in house; host or cells: cell-free: TNT quick coupled transcription/translation system (Promega)
T2 sequence (Q16594 whole entry): as above
Experimental: as §2, §3, §4

[8] = target: T3, GLI1-TAFbd peptide / TAFII31 protein (Homo sapiens, UniProt Q16594); experiment: as above; type: binding
T3 construct: The full-length TAFII31 cDNA insert cloned into the (c-myc-tag)pCDNA3.1 expression vector was used as template; made in house; host or cells: cell-free: TNT quick coupled transcription/translation system (Promega)
T3 sequence (Q16594 whole entry): as above
Experimental: as §2, §3, §4

| Structure (SMILES) | uptake of FN1-5 relative to FN1-8 ([1]; i.p. injection) | time of uptake into plasma ([1]; i.p., 30 mg/kg) [min] | time within which plasma/serum concentration diminishes ([1]; i.p., 30 mg/kg) [h] | cytosolic β-catenin level [2] | Hh signaling in tumor (RT-PCR) [3] | Hh signaling in tumor (RT-PCR) [4] | time after which dose-dependent cell killing effect is shown ([5]; A549, 10 μM and 20 μM) [days] | time by which cell killing effect is apparent ([5]; H322, 15 μM and 30 μM) [days] | time by which cell killing effect is apparent ([5]; H358, 15 μM and 30 μM) [days] | binding of GLI3-TAFbd to TAFII31 (DMSO = 100%) ([6]; 20 μM) [%] | binding of GLI3-TAFbd to TAFII31 (DMSO = 100%) ([6]; 50 μM) [%] | binding of GLI2-TAFbd to TAFII31 (DMSO = 100%) ([7]; 20 μM) [%] | binding of GLI2-TAFbd to TAFII31 (DMSO = 100%) ([7]; 50 μM) [%] | binding of GLI1-TAFbd to TAFII31 (DMSO = 100%) ([8]; 20 μM) [%] | binding of GLI1-TAFbd to TAFII31 (DMSO = 100%) ([8]; 50 μM) [%] |
| --- | --- | --- | --- | --- | --- | --- | --- | --- | --- | --- | --- | --- | --- | --- | --- |
| O=C(NCCCCCO)C1C(c2ccccc2)=NN(c2ccccc2)C1c1ccccc1 (stereo not drawn) [FN1-5, N-(5-Hydroxypentyl)-1,3,5-triphenyl-4,5-dihydro-pyrazole-4-carboxyamide] | about 2 fold | ≤ 10 | ≤ 24 | – | – | – | – | – | – | – | – | – | – | – | – |
| O=C(NCCc1ccc(O)cc1)C1C(c2ccccc2)=NN(c2ccccc2)C1c1ccccc1 (stereo not drawn) [FN1-8, N-(2-(4-Hydroxyphenyl)ethyl)-1,3,5-triphenyl-4,5-dihydro-pyrazole-4-carboxyamide] | – | – | – | no noticeable change | inhibited | no noticeable changes | 3 | ≤ 2 | ≤ 1 | 71.6 | 28.6 | 73.8 | 60 | 73.6 | 33.5 |
